Drawing on US10040781B2, “Tank-binding kinase inhibitor compounds” (Gilead Sciences, Inc., priority 2014, dated 2018), this text covers IC50 for 24 compounds.

The target of test [1] is IKKε (Homo sapiens (Human), UniProt Q14164). The test can be described thus: IKKε TR-FRET enzymatic assay. It is filed as biochemical. For orientation: Time-resolved FRET reads energy transfer from a long-lived donor to a nearby acceptor.
In test [2] the target is TBK1 (Homo sapiens (Human), UniProt Q9UHD2). Nature of the test: TBK1 TR-FRET enzymatic assay.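 Note: phosphorylation of a biotinylated Ser/Thr peptide by purified full-length recombinant TBK1, read by TR-FRET after 240 min at 25 °C, IC50 is the geometric mean of at least four runs.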
Chain of TBK1 (Q9UHD2 whole entry): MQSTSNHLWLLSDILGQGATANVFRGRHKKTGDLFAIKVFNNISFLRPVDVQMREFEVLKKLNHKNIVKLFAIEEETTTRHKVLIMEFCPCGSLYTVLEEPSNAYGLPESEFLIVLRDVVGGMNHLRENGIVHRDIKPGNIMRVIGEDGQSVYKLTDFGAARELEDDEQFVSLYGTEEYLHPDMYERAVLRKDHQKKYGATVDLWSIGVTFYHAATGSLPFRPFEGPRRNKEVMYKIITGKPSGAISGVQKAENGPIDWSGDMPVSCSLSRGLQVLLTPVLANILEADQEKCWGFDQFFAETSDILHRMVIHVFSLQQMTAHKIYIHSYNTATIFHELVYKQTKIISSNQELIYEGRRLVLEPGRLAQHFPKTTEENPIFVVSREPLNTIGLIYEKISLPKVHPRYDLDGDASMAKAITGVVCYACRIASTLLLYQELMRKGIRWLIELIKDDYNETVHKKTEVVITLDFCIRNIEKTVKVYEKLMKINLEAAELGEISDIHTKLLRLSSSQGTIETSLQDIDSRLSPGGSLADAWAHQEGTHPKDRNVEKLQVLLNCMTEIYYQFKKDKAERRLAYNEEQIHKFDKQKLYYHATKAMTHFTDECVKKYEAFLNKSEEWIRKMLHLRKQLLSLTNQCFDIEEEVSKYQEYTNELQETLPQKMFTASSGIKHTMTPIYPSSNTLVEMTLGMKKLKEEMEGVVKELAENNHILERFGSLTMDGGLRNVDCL
Protocol: Enzymatic activity of IKKε and TBK1 was measured using a homogeneous time resolved fluorescence resonance energy transfer (TR-FRET) assay that monitors enzyme dependent phosphorylation of a biotinylated serine/threonine peptide substrate. […] TBK1 and IKKε were expressed and purified as full length recombinant proteins. Detection reagents for the assay were purchased from Cisbio. […] After an assay reaction time of 240 minutes at 25° C., reactions were terminated with EDTA.
All IC50 values represent geometric mean values of a minimum of four determinations.
For test [3], the target named is hJAK2 (Homo sapiens (Human), UniProt O60674). The test can be described thus: hJAK2 LANCE TR-FRET enzymatic assay. Format: biochemical. The settings on record: read-out: JAK2 IC50.
Chain of hJAK2 (O60674 whole entry): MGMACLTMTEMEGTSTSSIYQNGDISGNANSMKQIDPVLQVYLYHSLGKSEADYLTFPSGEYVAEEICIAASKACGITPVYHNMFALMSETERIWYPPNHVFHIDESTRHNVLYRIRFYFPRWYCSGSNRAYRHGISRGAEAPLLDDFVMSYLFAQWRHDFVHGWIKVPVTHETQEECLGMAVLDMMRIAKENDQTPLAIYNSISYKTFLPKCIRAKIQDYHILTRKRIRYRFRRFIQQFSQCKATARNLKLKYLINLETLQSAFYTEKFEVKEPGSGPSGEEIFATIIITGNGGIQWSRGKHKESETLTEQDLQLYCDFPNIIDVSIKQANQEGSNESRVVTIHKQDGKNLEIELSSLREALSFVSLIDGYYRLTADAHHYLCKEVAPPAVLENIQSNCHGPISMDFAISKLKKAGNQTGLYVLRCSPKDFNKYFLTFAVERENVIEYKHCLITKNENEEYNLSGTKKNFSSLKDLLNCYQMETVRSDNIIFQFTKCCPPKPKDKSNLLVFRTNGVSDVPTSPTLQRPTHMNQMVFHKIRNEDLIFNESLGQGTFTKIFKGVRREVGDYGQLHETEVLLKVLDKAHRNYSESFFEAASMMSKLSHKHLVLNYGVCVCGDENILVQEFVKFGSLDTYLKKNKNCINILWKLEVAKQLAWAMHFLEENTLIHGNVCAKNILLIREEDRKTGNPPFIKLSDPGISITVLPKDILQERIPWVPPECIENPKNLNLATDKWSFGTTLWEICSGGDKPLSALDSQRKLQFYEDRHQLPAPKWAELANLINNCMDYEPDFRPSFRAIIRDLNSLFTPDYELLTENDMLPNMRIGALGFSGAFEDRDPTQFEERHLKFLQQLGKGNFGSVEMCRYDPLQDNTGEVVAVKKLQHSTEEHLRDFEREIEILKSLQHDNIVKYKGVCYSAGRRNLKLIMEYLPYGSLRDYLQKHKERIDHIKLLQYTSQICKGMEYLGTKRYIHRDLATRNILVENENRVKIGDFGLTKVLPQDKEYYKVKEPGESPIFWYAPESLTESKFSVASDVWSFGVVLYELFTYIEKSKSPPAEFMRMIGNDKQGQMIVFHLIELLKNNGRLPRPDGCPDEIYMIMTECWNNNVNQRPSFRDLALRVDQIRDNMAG

pIC50: −log10 of the molar value. Read-outs that look alike come from different tables or passages of the source. Some results are limits rather than exact numbers.

Chain of IKKε (Q14164 whole entry): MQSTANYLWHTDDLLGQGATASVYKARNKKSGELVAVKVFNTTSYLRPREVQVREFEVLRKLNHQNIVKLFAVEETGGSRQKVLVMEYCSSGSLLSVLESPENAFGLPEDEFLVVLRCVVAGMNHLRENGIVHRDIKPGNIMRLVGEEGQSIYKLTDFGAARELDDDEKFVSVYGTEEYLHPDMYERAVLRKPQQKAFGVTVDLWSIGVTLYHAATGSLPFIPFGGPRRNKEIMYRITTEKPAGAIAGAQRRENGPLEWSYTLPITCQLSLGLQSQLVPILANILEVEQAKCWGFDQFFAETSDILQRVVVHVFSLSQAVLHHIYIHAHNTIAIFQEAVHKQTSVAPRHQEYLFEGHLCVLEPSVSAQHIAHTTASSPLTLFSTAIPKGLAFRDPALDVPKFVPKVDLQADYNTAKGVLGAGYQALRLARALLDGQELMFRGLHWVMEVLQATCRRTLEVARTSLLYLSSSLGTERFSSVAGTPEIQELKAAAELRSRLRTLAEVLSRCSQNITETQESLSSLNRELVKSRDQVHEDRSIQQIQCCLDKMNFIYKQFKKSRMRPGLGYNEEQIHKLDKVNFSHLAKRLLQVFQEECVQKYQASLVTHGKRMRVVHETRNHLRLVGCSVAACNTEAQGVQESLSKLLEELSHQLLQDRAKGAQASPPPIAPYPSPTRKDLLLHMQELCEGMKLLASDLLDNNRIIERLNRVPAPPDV

For `N#Cc1cc(-c2ncnc(Nc3ccc(N4CCN(C5COC5)CC4)cc3)n2)ccc1O[C@@H]1CCN(C(=O)CO)C[C@@H]1F` (racemic) [Example 218, 2-((cis-3-fluoro-1-(2-hydroxyacetyl)piperidin-4-yl)oxy)-5-(4-((4-(4-(oxetan-3-yl)piperazin-1-yl)phenyl)amino)-1,3,5-triazin-2-yl)benzonitrile], the negative logarithm of the IC50 (pIC50) (as a rule, the IC50 on a negative log10 scale, so that one unit is a factor of ten) in test [1] (read-out: IKKe IC50) is 8.52.
In the case of `N#Cc1cc(-c2ncnc(Nc3ccc(N4CCN(C5COC5)CC4)cc3)n2)ccc1OC1CC[S+]([O-])CC1` (single isomer, unassigned) [Example 25, 5-(4-((4-(4-(oxetan-3-yl)piperazin-1-yl)phenyl)amino)-1,3,5-triazin-2-yl)-2-((1-oxidotetrahydro-2H-thiopyran-4-yl)oxy)benzonitrile], the pIC50 in test [2] (TBK1 IC50) was 7.68; in test [1] (IKKe IC50), 7.14.
In the same order, the values of `N#Cc1cc(-c2ncnc(Nc3ccc(N4CCN(C5COC5)CC4)cc3)n2)ccc1OC1CC[S+]([O-])CC1` (single isomer, unassigned) [Example 26, 5-(4-((4-(4-(oxetan-3-yl)piperazin-1-yl)phenyl)amino)-1,3,5-triazin-2-yl)-2-((1-oxidotetrahydro-2H-thiopyran-4-yl)oxy)benzonitrile] are 8.22 and 7.64.
Turning to `COC(=O)N1CC[C@@H](Oc2ccc(-c3ncnc(Nc4ccc(N5CCN(C6COC6)CC5)cc4)n3)cc2C#N)C1` [Example 2, (R)-methyl 3-(2-cyano-4-(4-((4-(4-(oxetan-3-yl)piperazin-1-yl)phenyl)amino)-1,3,5-triazin-2-yl)phenoxy)pyrrolidine-1-carboxylate], the pIC50 in test [2] was 7.43; in test [1] (read-out: IKKe IC50) it was 6.83.
In the same order, the values of `CNC(=O)c1ccc(Nc2ncnc(-c3ccc(OC4CCOCC4)c(C#N)c3)n2)cc1` [Example 14, 4-((4-(3-cyano-4-((tetrahydro-2H-pyran-4-yl)oxy)phenyl)-1,3,5-triazin-2-yl)amino)-N-methylbenzamide] are 8.40 and 7.68.
The matching figures for `N#Cc1cc(-c2ncnc(Nc3ccc(N4CCN(C5COC5)CC4)cc3)n2)ccc1O[C@@H]1CCOC1` [Example 29, (R)-5-(4-((4-(4-(oxetan-3-yl)piperazin-1-yl)phenyl)amino)-1,3,5-triazin-2-yl)-2-((tetrahydrofuran-3-yl)oxy)benzonitrile]: 8.30 and 7.49.
In the same order, the values of `N#Cc1cc(-c2ncnc(Nc3ccc(N4CCOCC4)cc3)n2)ccc1NC(=O)[C@@H]1CCCN1` [Example 37, (S)—N-(2-cyano-4-(4-((4-morpholinophenyl)amino)-1,3,5-triazin-2-yl)phenyl)pyrrolidine-2-carboxamide] are 6.69 and 6.52.
For the compound `COc1cc(Nc2ncnc(-c3ccc(OC4CCOCC4)c(C#N)c3)n2)cc(F)c1N1CCN(C2COC2)CC1` [Example 61, 5-(4-((3-fluoro-5-methoxy-4-(4-(oxetan-3-yl)piperazin-1-yl)phenyl)amino)-1,3,5-triazin-2-yl)-2-((tetrahydro-2H-pyran-4-yl)oxy)benzonitrile], the values for the pIC50 in test [2] and in test [1] (read-out: IKKe IC50) were 8.70 and 8.15, respectively.
The matching figures for `N#Cc1cc(-c2ncnc(Nc3ccc(N4CCN(C(=O)CO)CC4)cc3)n2)ccc1OC1CCOCC1` [Example 64, 5-(4-((4-(4-(2-hydroxyacetyl)piperazin-1-yl)phenyl)amino)-1,3,5-triazin-2-yl)-2-((tetrahydro-2H-pyran-4-yl)oxy)benzonitrile]: 9.00 and 8.30.
`N#Cc1cc(-c2ncnc(Nc3ccc(N4CCO[C@@H](CO)C4)cc3)n2)ccc1OC1CCOCC1` [Example 107, (R)-5-(4-((4-(2-(hydroxymethyl)morpholino)phenyl)amino)-1,3,5-triazin-2-yl)-2-((tetrahydro-2H-pyran-4-yl)oxy)benzonitrile]: the negative-log IC50 (pIC50) in test [1] (read-out: IKKe IC50) is 8.52.
As to `N#CCC(=O)N1CC[C@H](Oc2ccc(-c3ncnc(Nc4ccc(N5CCN(C6COC6)CC5)cc4)n3)cc2C#N)C(F)(F)C1` [Example 160, (S)-2-((1-(2-cyanoacetyl)-3,3-difluoropiperidin-4-yl)oxy)-5-(4-((4-(4-(oxetan-3-yl)piperazin-1-yl)phenyl)amino)-1,3,5-triazin-2-yl)benzonitrile], the pIC50 was 8.52 in test [2] and 8.70 in test [1] (read-out: IKKe IC50).
As to `N#Cc1cc(-c2ncnc(Nc3ccc(N4CCN(C5COC5)CC4)cc3)n2)ccc1O[C@@H]1CCN(C(=O)CO)C[C@@H]1F` [Example 224, 2-(((3S,4R)-3-fluoro-1-(2-hydroxyacetyl)piperidin-4-yl)oxy)-5-(4-((4-(4-(oxetan-3-yl)piperazin-1-yl)phenyl)amino)-1,3,5-triazin-2-yl)benzonitrile], in test [1] (read-out: IKKe IC50), the pIC50 is 7.64.
The same measure, in the same setting: to `N#Cc1cc(-c2ncnc(Nc3ccc(N4CCN(C5COC5)CC4)cc3)n2)ccc1O[C@@H]1CCN(C(=O)CO)C[C@H]1F` [Example 235, 2-(((3R,4R)-3-fluoro-1-(2-hydroxyacetyl)piperidin-4-yl)oxy)-5-(4-((4-(4-(oxetan-3-yl)piperazin-1-yl)phenyl)amino)-1,3,5-triazin-2-yl)benzonitrile] belongs 8.30; to `N#Cc1cc(-c2ncnc(Nc3ccc(C4CCN(C5COC5)CC4)cc3)n2)ccc1OC1CCS(=O)(=O)CC1` [Example 270, 2-((1,1-dioxidotetrahydro-2H-thiopyran-4-yl)oxy)-5-(4-((4-(1-(oxetan-3-yl)piperidin-4-yl)phenyl)amino)-1,3,5-triazin-2-yl)benzonitrile], 7.37.
Turning to `C[C@H](O)C(=O)N1CC[C@H](Oc2ccc(-c3ncnc(Nc4ccc(N5CCNCC5)cc4)n3)cc2C#N)[C@H](F)C1` [Example 497, 2-(((3R,4S)-3-fluoro-1-((S)-2-hydroxypropanoyl)piperidin-4-yl)oxy)-5-(4-((4-(piperazin-1-yl)phenyl)amino)-1,3,5-triazin-2-yl)benzonitrile], the results for the pIC50 in test [2] and in test [3] were 9.00 and 6.45, respectively.
In the same order, the values of `C[C@H](O)C(=O)N1CC[C@H](Oc2ccc(-c3ncnc(Nc4ccc(N5CCN(C)CC5)cc4)n3)cc2C#N)[C@H](F)C1` [Example 498, 2-(((3R,4S)-3-fluoro-1-((S)-2-hydroxypropanoyl)piperidin-4-yl)oxy)-5-(4-((4-(4-methylpiperazin-1-yl)phenyl)amino)-1,3,5-triazin-2-yl)benzonitrile] are 8.70 and 6.41.
The matching figures for `C[C@H]1CN(C)CCN1c1ccc(Nc2ncnc(-c3ccc(O[C@H]4CCN(C(=O)CO)C[C@H]4F)c(C#N)c3)n2)cc1` [Example 500, 5-(4-((4-((S)-2,4-dimethylpiperazin-1-yl)phenyl)amino)-1,3,5-triazin-2-yl)-2-(((3R,4S)-3-fluoro-1-(2-hydroxyacetyl)piperidin-4-yl)oxy)benzonitrile]: 8.70 and 6.74.
The matching figures for `C[C@H](O)C(=O)N1CC[C@H](Oc2ccc(-c3ncnc(Nc4ccc(N5CCN(C)C[C@@H]5C)cc4)n3)cc2C#N)[C@H](F)C1` [Example 501, 5-(4-((4-((S)-2,4-dimethylpiperazin-1-yl)phenyl)amino)-1,3,5-triazin-2-yl)-2-(((3R,4S)-3-fluoro-1-((S)-2-hydroxypropanoyl)piperidin-4-yl)oxy)benzonitrile]: 8.70 and 6.34.
`COc1cc(Nc2ncnc(-c3ccc(O[C@H]4CCN(C(=O)CO)C[C@H]4F)c(C#N)c3)n2)ccc1N1CCN(C)C[C@@H]1C` [Example 508, 5-(4-((4-((S)-2,4-dimethylpiperazin-1-yl)-3-methoxyphenyl)amino)-1,3,5-triazin-2-yl)-2-(((3R,4S)-3-fluoro-1-(2-hydroxyacetyl)piperidin-4-yl)oxy)benzonitrile]: the pIC50 in test [2] was 8.70; in test [3], 7.31.
In the same order, the values of `C[C@H]1CN(C)CCN1c1ccc(Nc2ncnc(-c3ccc(O[C@H]4CCN(C(=O)[C@@H](O)CO)C[C@H]4F)c(C#N)c3)n2)cc1` [Example 515, 2-(((3R,4S)-1-((S)-2,3-dihydroxypropanoyl)-3-fluoropiperidin-4-yl)oxy)-5-(4-((4-((S)-2,4-dimethylpiperazin-1-yl)phenyl)amino)-1,3,5-triazin-2-yl)benzonitrile] are 8.70 and 6.45.
In the same order, the values of `C[C@H]1OC(=O)N[C@@H]1C(=O)N1CC[C@H](Oc2ccc(-c3ncnc(Nc4ccc(N5CCN(C6COC6)CC5)cc4)n3)cc2C#N)[C@H](F)C1` [Example 523, 2-(((3R,4S)-3-fluoro-1-((4S,5R)-5-methyl-2-oxooxazolidine-4-carbonyl)piperidin-4-yl)oxy)-5-(4-((4-(4-(oxetan-3-yl)piperazin-1-yl)phenyl)amino)-1,3,5-triazin-2-yl)benzonitrile] are 8.00 and 6.09.
The matching figures for `COCCNc1ccc(Nc2ncnc(-c3ccc(O[C@H]4CCN(C(=O)[C@H](C)O)C[C@H]4F)c(C#N)c3)n2)cn1` [Example 543, 2-(((3R,4S)-3-fluoro-1-((S)-2-hydroxypropanoyl)piperidin-4-yl)oxy)-5-(4-((6-((2-methoxyethyl)amino)pyridin-3-yl)amino)-1,3,5-triazin-2-yl)benzonitrile]: 7.92 and no more than 6.00.
For the compound `N#Cc1cc(-c2ncnc(Nc3ccc(N4CCN(C5COC5)CC4)cc3)n2)ccc1OCCCN1CCCC1=O` [Example 600, 5-(4-((4-(4-(oxetan-3-yl)piperazin-1-yl)phenyl)amino)-1,3,5-triazin-2-yl)-2-(3-(2-oxopyrrolidin-1-yl)propoxy)benzonitrile], the pIC50 in test [2] was 6.29; in test [3], no more than 6.00.
With `CN1CCN(C(=O)N(C)CCOc2ccc(-c3ncnc(Nc4ccc(N5CCN(C6COC6)CC5)cc4)n3)cc2C#N)CC1` [Example 603, N-(2-(2-cyano-4-(4-((4-(4-(oxetan-3-yl)piperazin-1-yl)phenyl)amino)-1,3,5-triazin-2-yl)phenoxy)ethyl)-N,4-dimethylpiperazine-1-carboxamide], the negative logarithm of the IC50 (pIC50) is 6.33 in test [2] and no more than 6.00 in test [3].
